Results as given in ChEMBL document CHEMBL5385913, “First-in-Class Dual EZH2-HSP90 Inhibitor Eliciting Striking Antiglioblastoma Activity In Vitro and In Vivo” (J Med Chem, 2024).
Calls of active or inactive are those of the source. No cut-off for these calls is given here.

Assays:
[1] = Downregulation of CENPI level in TMZ-resistant patient-derived human GBM cells assessed as fold change at 2 uM by GlioVis analysis (reference value: 3.46); format: functional
[2] = tested on: GBM; assay: Upregulation of ZYX gene expression in TMZ-resistant patient-derived human GBM cells by KEGG analysis; format: functional, cell-based
[3] = tested on: GBM; assay: Effect on homologous recombination in TMZ-resistant patient-derived human GBM cells assessed as fold decrease in HDAC10 gene expression at 2 uM (reference value: 0.53); format: functional
[4] = tested on: GBM; assay: Induction of mitochondrial ROS production in TMZ-resistant patient-derived human GBM cells by MitoSOX staining based analysis; format: functional, cell-based
[5] = tested on: GBM; assay: Downregulation of CDK1 level in TMZ-resistant patient-derived human GBM cells upto 5 uM incubated for 48 to 72 hrs by Western blot analysis; format: functional, cell-based; details: time 48-72 hrs
[6] = tested on: GBM; assay: Downregulation of YWHAG gene expression in TMZ-resistant patient-derived human GBM cells by KEGG analysis; format: functional, cell-based
[7] = tested on: GBM; assay: Upregulation of CTNNB1 gene expression in TMZ-resistant patient-derived human GBM cells by KEGG analysis; format: functional, cell-based
[8] = tested on: GBM; assay: Effect on homologous recombination in TMZ-resistant patient-derived human GBM cells assessed as fold decrease in RAD21 gene expression at 2 uM (reference value: 5.77); format: functional
[9] = tested on: GBM; assay: Downregulation of RPS6 gene expression in TMZ-resistant patient-derived human GBM cells by KEGG analysis; format: functional, cell-based
[10] = biological target: Histone-lysine N-methyltransferase EZH2 (Homo sapiens) (UniProt Q15910); assay: Inhibition of EZH2-mediated H3K27 trimethylation in patient-derived human GBM cells upto 10 uM measured after 48 hrs by Western blot analysis; format: cell-based
[11] = Downregulation of HELLS level in TMZ-resistant patient-derived human GBM cells assessed as fold change at 2 uM by GlioVis analysis (reference value: 4.19); format: functional
[12] = tested on: GBM; assay: Downregulation of CENPE level in TMZ-resistant patient-derived human GBM cells upto 5 uM incubated for 48 to 72 hrs by Western blot analysis; format: functional, cell-based; details: time 48-72 hrs
[13] = Effect on processing DNA double-strand break in TMZ-resistant patient-derived human GBM cells assessed as fold decrease in RBBP8 gene expression at 2 uM (reference value: 4.92); format: functional
[14] = tested on: GBM; assay: Upregulation of HSPA4 gene expression in TMZ-resistant patient-derived human GBM cells by KEGG analysis; format: functional, cell-based
[15] = tested on: GBM; assay: Upregulation of SERPINE1 gene expression in TMZ-resistant patient-derived human GBM cells by KEGG analysis; format: functional, cell-based
[16] = tested on: GBM; assay: Effect on homologous recombination in TMZ-resistant patient-derived human GBM cells assessed as fold decrease in TOP2A gene expression at 2 uM (reference value: 6.78); format: functional
[17] = Downregulation of CENPU level in TMZ-resistant patient-derived human GBM cells assessed as fold change at 2 uM by GlioVis analysis (reference value: 3.88); format: functional
[18] = tested on: GBM; assay: Suppression of DNA repair in TMZ-resistant patient-derived human GBM cells by GSEA analysis; format: functional, cell-based
[19] = Downregulation of CENPW level in TMZ-resistant patient-derived human GBM cells assessed as fold change at 2 uM by GlioVis analysis (reference value: 2.83); format: functional
[20] = Downregulation of CENPM level in TMZ-resistant patient-derived human GBM cells assessed as fold change at 2 uM by GlioVis analysis (reference value: 2.23); format: functional
[21] = tested on: GBM; assay: Effect on homologous recombination in TMZ-resistant patient-derived human GBM cells assessed as fold decrease in RMI1 gene expression at 2 uM (reference value: 3.44); format: functional
[22] = tested on: GBM; assay: Induction of ROS production in TMZ-resistant patient-derived human GBM cells assessed as increase in cleaved caspase-3 level upto 5 uM measured for 48 hrs by Western blot analysis; format: functional, cell-based
[23] = tested on: GBM; assay: Upregulation of necrosis-related gene expression in TMZ-resistant patient-derived human GBM cells; format: functional, cell-based
[24] = biological target: Histone-lysine N-methyltransferase EZH2 (Homo sapiens) (UniProt Q15910); assay: Inhibition of EZH2 in TMZ-resistant patient-derived human GBM cells upto 10 uM measured after 48 hrs by Western blot analysis; format: cell-based
[25] = tested on: GBM; assay: Downregulation of SRSF7 gene expression in TMZ-resistant patient-derived human GBM cells by KEGG analysis; format: functional, cell-based
[26] = tested on: GBM; assay: Downregulation of RPS10 gene expression in TMZ-resistant patient-derived human GBM cells by KEGG analysis; format: functional, cell-based
[27] = tested on: GBM; assay: Effect on homologous recombination in TMZ-resistant patient-derived human GBM cells assessed as fold decrease in RAD54B gene expression at 2 uM (reference value: 1.74); format: functional
[28] = tested on: GBM; assay: Upregulation of ACTB gene expression in TMZ-resistant patient-derived human GBM cells by KEGG analysis; format: functional, cell-based
[29] = tested on: GBM; assay: Downregulation of MCM3 gene expression in TMZ-resistant patient-derived human GBM cells by KEGG analysis; format: functional, cell-based
[30] = tested on: GBM; assay: Downregulation of CENPA level in TMZ-resistant patient-derived human GBM cells upto 5 uM incubated for 48 to 72 hrs by Western blot analysis; format: functional, cell-based; details: time 48-72 hrs
[31] = tested on: GBM; assay: Induction of ROS production in TMZ-resistant patient-derived human GBM cells assessed as decrease in SOD1 level upto 10 uM measured after 48 hrs by Western blot analysis; format: functional, cell-based
[32] = tested on: GBM; assay: Upregulation of HSPA8 gene expression in TMZ-resistant patient-derived human GBM cells by KEGG analysis; format: functional, cell-based
[33] = tested on: GBM; assay: Upregulation of apoptosis-related gene expression in TMZ-resistant patient-derived human GBM cells; format: functional, cell-based
[34] = tested on: GBM; assay: Induction of ROS production in TMZ-resistant patient-derived human GBM cells assessed as decrease in GPX1 level upto 10 uM measured after 48 hrs by Western blot analysis; format: functional, cell-based
[35] = tested on: GBM; assay: Downregulation of MCM7 gene expression in TMZ-resistant patient-derived human GBM cells by KEGG analysis; format: functional, cell-based
[36] = Effect on processing DNA double-strand break in TMZ-resistant patient-derived human GBM cells assessed as fold decrease in DNA2 gene expression at 2 uM (reference value: 2.75); format: functional
[37] = Downregulation of NASP level in TMZ-resistant patient-derived human GBM cells assessed as fold change at 2 uM by GlioVis analysis (reference value: 5.08); format: functional
[38] = Downregulation of HJURP level in TMZ-resistant patient-derived human GBM cells assessed as fold change at 2 uM by GlioVis analysis (reference value: 4.74); format: functional
[39] = Downregulation of MIS18BP1 level in TMZ-resistant patient-derived human GBM cells assessed as fold change at 2 uM by GlioVis analysis (reference value: 3.87); format: functional

Histone-lysine N-methyltransferase EZH2 (Homo sapiens), sequence (Q15910 whole entry, looked up): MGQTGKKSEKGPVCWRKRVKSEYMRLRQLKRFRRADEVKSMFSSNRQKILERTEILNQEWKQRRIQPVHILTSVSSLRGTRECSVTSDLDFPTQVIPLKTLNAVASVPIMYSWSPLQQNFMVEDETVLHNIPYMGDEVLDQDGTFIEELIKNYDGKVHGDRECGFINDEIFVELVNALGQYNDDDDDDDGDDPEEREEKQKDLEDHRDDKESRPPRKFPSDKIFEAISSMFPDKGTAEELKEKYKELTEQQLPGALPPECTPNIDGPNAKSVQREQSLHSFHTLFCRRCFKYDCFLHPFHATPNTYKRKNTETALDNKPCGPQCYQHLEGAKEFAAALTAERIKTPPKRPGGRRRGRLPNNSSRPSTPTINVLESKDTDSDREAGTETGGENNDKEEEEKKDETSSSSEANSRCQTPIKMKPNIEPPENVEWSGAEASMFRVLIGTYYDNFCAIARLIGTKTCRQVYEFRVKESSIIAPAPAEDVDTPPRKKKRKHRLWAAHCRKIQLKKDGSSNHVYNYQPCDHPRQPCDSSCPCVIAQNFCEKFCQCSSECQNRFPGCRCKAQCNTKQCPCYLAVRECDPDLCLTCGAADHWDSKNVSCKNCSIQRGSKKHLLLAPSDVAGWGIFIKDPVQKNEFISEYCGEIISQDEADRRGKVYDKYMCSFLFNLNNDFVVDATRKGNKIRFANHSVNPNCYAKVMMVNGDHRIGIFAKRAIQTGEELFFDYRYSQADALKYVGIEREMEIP

For CCN(c1cc(-c2cccc(N(C)C(=O)c3cc(C(C)C)c(O)cc3O)c2)cc(C(=O)NCc2c(C)cc(C)[nH]c2=O)c1C)C1CCOCC1, the “fold change (FC)” value [1] was 1.14, the Activity [2] was “Active” and the “fold change (FC)” value [3] was 0.17. For the same compound, the Activity [4] was “Active”, the Activity [5] was “Active” and the Activity [6] was “Active”. For the same compound, the Activity [7] was “Active”, the “fold change (FC)” value [8] was 4.69 and the Activity [9] was “Active”. The inhibition [10] was “Active”, the “fold change (FC)” value [11] was 2.37 and the Activity [12] was “Active”. For the same compound, the “fold change (FC)” value [13] was 3.95, the Activity [14] was “Active” and the Activity [15] was “Active”. The “fold change (FC)” value [16] was 2.68, the “fold change (FC)” value [17] was 1.46 and the Activity [18] was “Active”. The “fold change (FC)” value [19] was 0.72, the “fold change (FC)” value [20] was 0.48 and the “fold change (FC)” value [21] was 2.33. The Activity [22] was “Active”, the Activity [23] was “Active” and the inhibition [24] was “Active”. The Activity [25] was “Active”, the Activity [26] was “Active” and the “fold change (FC)” value [27] was 0.83. For the same compound, the Activity [28] was “Active”, the Activity [29] was “Active” and the Activity [30] was “Active”. For the same compound, the Activity [31] was “Active”, the Activity [32] was “Active” and the Activity [33] was “Active”. For the same compound, the Activity [34] was “Active”, the Activity [35] was “Active” and the “fold change (FC)” value [36] was 1.33. For the same compound, the “fold change (FC)” value [37] was 3.41, the “fold change (FC)” value [38] was 1.38 and the “fold change (FC)” value [39] was 2.43.
